This is an account of results in ChEMBL document CHEMBL6182833, “Design, synthesis and antiviral evaluation of triazole-linked 7-hydroxycoumarin-monoterpene conjugates as inhibitors of RSV replication” (RSC Med Chem, 2025).

By CC50 is commonly meant the concentration at which the toxic effect on the cells reaches its halfway point. In general, EC50 refers to the concentration needed to bring the measured effect to its halfway point.

For one series, the system named is HEp-2. Description: Cytotoxicity against human HEp-2 cells assessed as cell growth inhibition measured after 24 hrs by MTT assay. The series is classed as functional. (Tetrazolium dyes change colour on reduction, which living cells bring about.)
The test system of series [1] is Human orthopneumovirus. Description: Antiviral activity against Respiratory syncytial virus type A infected in human HEp-2 cells assessed as inhibition of viral replication preincubated with cells followed by viral infection for 1 hr followed by virus washout and further incubated with compound for 6 days by ELISA method. Format: functional, organism-based.
Series [2] in a line: Selectivity index, ratio of CC50 for human HEp-2 cells to IC50 for Respiratory syncytial virus type A infected in human HEp-2 cells. As to conditions: read-out: Ratio CC50/IC50. Format: cell-based.
Series [3] concerns Human orthopneumovirus. Kind of series: Antiviral activity against Respiratory syncytial virus type B infected in human HEp-2 cells assessed as inhibition of viral replication preincubated with cells followed by viral infection for 1 hr followed by virus washout and further incubated with compound for 6 days by ELISA method. The series is classed as functional, organism-based.

Series [4] is described as follows: Selectivity index, ratio of CC50 for human HEp-2 cells to IC50 for Respiratory syncytial virus type B infected in human HEp-2 cells. Format: cell-based. As to conditions: read-out: Ratio CC50/IC50.
For series [5], the system named is Human orthopneumovirus. Kind of series: Antiviral activity against Respiratory syncytial virus type A infected in human HEp-2 cells assessed as inhibition of viral replication preincubated with cells and simultaneously with virus and measured after 25 hrs by ELISA method. Format: functional, organism-based.
Series [6] concerns Human orthopneumovirus. Kind of series: Antiviral activity against Respiratory syncytial virus type A infected in human HEp-2 cells assessed as inhibition of viral replication preincubated with cells followed by compound washout followed by viral infection and measured after 25 hrs by ELISA method. The series is classed as functional, organism-based. (In general: In an ELISA, binding on a coated surface is turned into a signal by an enzyme label.)

The structures appear in SMILES notation. Activity calls are given as the source filed them. No cut-off for these calls is given here.

Take `CC(C)CCCC(C)CCn1cc(COc2ccc3c4c(c(=O)oc3c2)CCC4)nn1` (stereo unspecified): the CC50 with HEp-2 came out at 264 µM. The IC50 was 1.7 µM in the series with Human orthopneumovirus [1] (read-out: IC50), 4.07 µM in the series on Human orthopneumovirus [1] (read-out: pIC50 (converted)), 0.23 µM in the series on Human orthopneumovirus [3] (read-out: IC50) and 5.25 µM in the series on Human orthopneumovirus [3] (read-out: pIC50 (converted)). Also, the values for the selectivity ratio in series [2] and in series [4] were 160 and 1150, respectively. Besides, the Activity entry in the series on Human orthopneumovirus [5] and in the series with Human orthopneumovirus [6] was “Weak_effect” each time.
For the compound `CC(C)=CCCC(C)=CCn1cc(COc2ccc3c4c(c(=O)oc3c2)CCCC4)nn1`, in the series with HEp-2, the CC50 is 279 µM. The IC50 in the series with Human orthopneumovirus [1] (read-out: IC50) is 0.46 µM; in the series with Human orthopneumovirus [1] (read-out: pIC50 (converted)), 0.457 µM; with Human orthopneumovirus [3] (read-out: IC50), 1.2 µM; in the series on Human orthopneumovirus [3] (read-out: pIC50 (converted)), 1.2 µM. Besides, the selectivity ratio in series [2] was determined as 605; in series [4] it was 233. For the same compound, in the series with Human orthopneumovirus [5], the outcome was inactive.
For `CC1(C)[C@H]2CC=C(Cn3cc(COc4ccc5c6c(c(=O)oc5c4)CCCC6)nn3)[C@@H]1C2`, the CC50 in the series on HEp-2 came out at 30.1 µM. For the same compound, the IC50 is 0.6 µM with Human orthopneumovirus [1] (read-out: IC50) and 1.3 µM in the series on Human orthopneumovirus [3] (read-out: IC50). Moreover, the selectivity ratio in series [2] amounted to 50; in series [4], 23.3. Moreover, the Activity result in the series with Human orthopneumovirus [5] and in the series on Human orthopneumovirus [6] was “Weak_effect” each time.
On to `CC(C)=CCCC(C)=CCn1cc(COc2ccc3c4c(c(=O)oc3c2)CCC4)nn1`, for which, in the series with HEp-2, the CC50 is 19.1 µM. The IC50 is 5.7 µM with Human orthopneumovirus [1] (read-out: IC50), 5.75 µM in the series on Human orthopneumovirus [1] (read-out: pIC50 (converted)), 6.5 µM with Human orthopneumovirus [3] (read-out: IC50) and 6.46 µM in the series with Human orthopneumovirus [3] (read-out: pIC50 (converted)). For the same compound, the figures for the selectivity ratio in series [2] and in series [4] were 3.3 and 2.9, respectively.
Take `CC1(C)[C@H]2CC=C(Cn3cc(COc4ccc5c(-c6ccccc6)cc(=O)oc5c4)nn3)[C@@H]1C2`: in the series with HEp-2, the CC50 amounted to 13.7 µM. Besides, the IC50 with Human orthopneumovirus [1] (read-out: IC50) was under 0.2 µM; in the series with Human orthopneumovirus [3] (read-out: IC50), 1.6 µM. Besides, the selectivity ratio in series [2] is over 88; in series [4], 8.5.
The corresponding values for `CC(C)=CCC/C(C)=C/CCOc1ccc2c(C)cc(=O)oc2c1` are 483 µM, 46.7 µM, 52.4 µM, 10.3 and 9.2.
As for `Cc1cc(=O)oc2cc(OCC3=CC[C@H]4C[C@@H]3C4(C)C)ccc12`, the CC50 with HEp-2 turned out to be 796 µM. Further, the figures for the IC50 with Human orthopneumovirus [1] (read-out: IC50) and in the series with Human orthopneumovirus [3] (read-out: IC50) were 29 µM and 241 µM, respectively. Also, the values for the selectivity ratio in series [2] and in series [4] were 27.4 and 3.3, respectively.
Turning to `CC(C)CCCC(C)CCn1cc(COc2ccc3c4c(c(=O)oc3c2)CCCC4)nn1` (stereo unspecified), the CC50 with HEp-2 is 22.2 µM. The IC50 in the series with Human orthopneumovirus [1] (read-out: IC50) is 3.7 µM; in the series with Human orthopneumovirus [1] (read-out: pIC50 (converted)), 3.72 µM; in the series with Human orthopneumovirus [3] (read-out: IC50), 4.5 µM; with Human orthopneumovirus [3] (read-out: pIC50 (converted)), 4.47 µM. Further, the selectivity ratio in series [2] turned out to be 6.1; in series [4], 4.9.
As for `Cc1cc(=O)oc2cc(OCC3=CC[C@@H]4C[C@H]3C4(C)C)ccc12`, in the series with HEp-2, the CC50 was 116 µM. For the same compound, the figures for the IC50 in the series on Human orthopneumovirus [1] (read-out: IC50) and in the series on Human orthopneumovirus [3] (read-out: IC50) were 1.3 µM and 4.7 µM, respectively. In addition, the selectivity ratio was found to be 90 in series [2] and 24.7 in series [4].
In the same order, the values of `CC1(C)[C@@H]2CC=C(Cn3cc(COc4ccc5c(-c6ccccc6)cc(=O)oc5c4)nn3)[C@H]1C2` are 43.4 µM, 4.2 µM, 6.3 µM, 10 and 6.8.
With `CC1(C)[C@@H]2CC=C(Cn3cc(COc4ccc5c6c(c(=O)oc5c4)CCC6)nn3)[C@H]1C2`, the CC50 in the series with HEp-2 came to 52.7 µM. The IC50 in the series on Human orthopneumovirus [1] (read-out: IC50) was found to be 6.9 µM; in the series with Human orthopneumovirus [3] (read-out: IC50), 7.2 µM. Further, the selectivity ratio in series [2] came to 7.6; in series [4], 7.3.
`CC1(C)[C@@H]2CC=C(Cn3cc(COc4ccc5c6c(c(=O)oc5c4)CCCC6)nn3)[C@H]1C2`: the CC50 in the series on HEp-2 worked out at 25.5 µM. In addition, the IC50 with Human orthopneumovirus [1] (read-out: IC50) was 4.1 µM; in the series with Human orthopneumovirus [1] (read-out: pIC50 (converted)), 4.07 µM; in the series on Human orthopneumovirus [3] (read-out: IC50), 3.5 µM. In addition, the selectivity ratio in series [2] turned out to be 6.3; in series [4], 7.2.
For the compound `CC1(C)[C@@H]2CC=C(COc3ccc4c5c(c(=O)oc4c3)CCC5)[C@H]1C2`, the CC50 with HEp-2 was 416 µM. Besides, in the series on Human orthopneumovirus [1] (read-out: IC50), the IC50 worked out at 4.1 µM. Besides, the selectivity ratio in series [2] is 100; in series [4], 81.6. Besides, the EC50 in the series with Human orthopneumovirus [3] amounted to 5.1 µM.
In the case of `Cc1cc(=O)oc2cc(OCc3cn(CC4=CC[C@@H]5C[C@H]4C5(C)C)nn3)ccc12`, the CC50 with HEp-2 was found to be 22.2 µM. The IC50 was found to be 6.6 µM in the series with Human orthopneumovirus [1] (read-out: IC50) and 7.6 µM in the series on Human orthopneumovirus [3] (read-out: IC50). Moreover, the selectivity ratio in series [2] amounted to 3.3; in series [4] it was 2.9.
For the compound `CC(C)=CCC/C(C)=C/Cn1cc(COc2ccc3c(C)cc(=O)oc3c2)nn1`, the 50% cytotoxic concentration (CC50) with HEp-2 is 15 µM. In addition, the IC50 with Human orthopneumovirus [1] (read-out: IC50) is 6.1 µM; with Human orthopneumovirus [1] (read-out: pIC50 (converted)), 6.17 µM; with Human orthopneumovirus [3] (read-out: IC50) it was 8.2 µM; in the series on Human orthopneumovirus [3] (read-out: pIC50 (converted)), 0.151 µM. The selectivity ratio in series [2] came out at 2.5; in series [4] it was 1.8.
`CC1(C)[C@H]2CC=C(COc3ccc4c5c(c(=O)oc4c3)CCCC5)[C@@H]1C2`: the CC50 with HEp-2 is 334 µM. The IC50 with Human orthopneumovirus [1] (read-out: IC50) is 108 µM; in the series with Human orthopneumovirus [3] (read-out: IC50), 60.5 µM. The figures for the selectivity ratio in series [2] and in series [4] were 3.5 and 5.5, respectively.
In the case of `CC1(C)[C@H]2CC=C(COc3ccc4c5c(c(=O)oc4c3)CCC5)[C@@H]1C2`, the CC50 with HEp-2 was 13.4 µM. The IC50 in the series with Human orthopneumovirus [1] (read-out: IC50) was over 13 µM. For the same compound, the selectivity ratio in series [2] is under 1; in series [4] it was 0.9. The half-maximal effective concentration (EC50) in the series on Human orthopneumovirus [3] was over 13 µM.
Consider `Cc1cc(=O)oc2cc(OCc3cn(Cc4ccc(C(C)C)cc4)nn3)ccc12`, for which the CC50 in the series with HEp-2 was 20 µM. Moreover, the IC50 in the series on Human orthopneumovirus [1] (read-out: IC50) is 2.2 µM; in the series on Human orthopneumovirus [3] (read-out: IC50), 3.2 µM. For the same compound, the selectivity ratio in series [2] was determined as 9; in series [4], 6.3.
